Data reported in ChEMBL document CHEMBL1134937, “Indoline and piperazine containing derivatives as a novel class of mixed D(2)/D(4) receptor antagonists. Part 2: asymmetric synthesis and biological evaluation” (Bioorg Med Chem Lett, 2002).

What was measured:
[1] = target: T1, Adrenergic receptor alpha-1 (Rattus norvegicus, UniProt P15823+P23944+P43140); experiment: Binding affinity towards Alpha-1 adrenergic receptor was determined by competitive displacement assays using rat brain homogenate with [3H]prazosin as the competitive ligand; assay type: tissue-based
T1 sequence (P15823 whole entry): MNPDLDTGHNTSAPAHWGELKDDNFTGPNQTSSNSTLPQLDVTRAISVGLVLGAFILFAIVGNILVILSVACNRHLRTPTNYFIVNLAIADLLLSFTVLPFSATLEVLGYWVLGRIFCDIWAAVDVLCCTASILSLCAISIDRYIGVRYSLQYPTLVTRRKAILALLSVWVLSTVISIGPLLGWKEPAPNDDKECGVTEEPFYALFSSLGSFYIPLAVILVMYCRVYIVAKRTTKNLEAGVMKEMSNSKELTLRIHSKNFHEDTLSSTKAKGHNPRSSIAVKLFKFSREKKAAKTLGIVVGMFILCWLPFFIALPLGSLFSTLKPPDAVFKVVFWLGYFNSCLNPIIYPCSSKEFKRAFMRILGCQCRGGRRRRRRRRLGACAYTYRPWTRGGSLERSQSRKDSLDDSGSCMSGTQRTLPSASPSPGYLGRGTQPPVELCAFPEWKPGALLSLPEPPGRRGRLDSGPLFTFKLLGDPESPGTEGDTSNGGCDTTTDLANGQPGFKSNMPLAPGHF
T1 sequence (P23944 whole entry): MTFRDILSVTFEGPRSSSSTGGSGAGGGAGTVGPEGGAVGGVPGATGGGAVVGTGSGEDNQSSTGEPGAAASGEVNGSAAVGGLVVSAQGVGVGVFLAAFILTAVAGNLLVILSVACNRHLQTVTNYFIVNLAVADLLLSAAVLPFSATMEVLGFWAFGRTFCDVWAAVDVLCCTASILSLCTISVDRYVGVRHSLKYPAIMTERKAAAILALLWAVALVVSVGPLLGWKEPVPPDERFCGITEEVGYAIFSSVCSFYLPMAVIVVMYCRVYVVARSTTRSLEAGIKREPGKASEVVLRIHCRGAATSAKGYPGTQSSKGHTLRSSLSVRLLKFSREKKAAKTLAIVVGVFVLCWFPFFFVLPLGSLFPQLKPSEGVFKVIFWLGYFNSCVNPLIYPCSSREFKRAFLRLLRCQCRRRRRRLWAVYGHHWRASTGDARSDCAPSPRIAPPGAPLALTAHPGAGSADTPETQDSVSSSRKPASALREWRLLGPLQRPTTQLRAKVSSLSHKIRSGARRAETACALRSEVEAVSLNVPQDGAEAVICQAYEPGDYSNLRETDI
T1 sequence (P43140 whole entry): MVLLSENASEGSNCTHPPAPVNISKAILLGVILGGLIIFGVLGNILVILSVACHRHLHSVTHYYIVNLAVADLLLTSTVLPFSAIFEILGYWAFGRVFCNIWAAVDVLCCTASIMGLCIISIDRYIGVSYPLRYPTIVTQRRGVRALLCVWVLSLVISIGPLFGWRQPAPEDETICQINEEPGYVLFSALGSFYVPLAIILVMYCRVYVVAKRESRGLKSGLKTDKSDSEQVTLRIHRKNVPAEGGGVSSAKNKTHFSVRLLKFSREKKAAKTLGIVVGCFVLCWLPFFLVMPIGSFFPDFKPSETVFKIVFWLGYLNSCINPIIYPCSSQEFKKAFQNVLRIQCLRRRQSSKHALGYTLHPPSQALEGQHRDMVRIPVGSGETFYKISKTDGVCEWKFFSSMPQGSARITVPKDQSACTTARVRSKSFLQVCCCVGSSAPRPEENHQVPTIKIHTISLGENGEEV

[2] = target: T2, D(4) dopamine receptor (Homo sapiens, UniProt P21917)
T2 sequence (P21917 whole entry): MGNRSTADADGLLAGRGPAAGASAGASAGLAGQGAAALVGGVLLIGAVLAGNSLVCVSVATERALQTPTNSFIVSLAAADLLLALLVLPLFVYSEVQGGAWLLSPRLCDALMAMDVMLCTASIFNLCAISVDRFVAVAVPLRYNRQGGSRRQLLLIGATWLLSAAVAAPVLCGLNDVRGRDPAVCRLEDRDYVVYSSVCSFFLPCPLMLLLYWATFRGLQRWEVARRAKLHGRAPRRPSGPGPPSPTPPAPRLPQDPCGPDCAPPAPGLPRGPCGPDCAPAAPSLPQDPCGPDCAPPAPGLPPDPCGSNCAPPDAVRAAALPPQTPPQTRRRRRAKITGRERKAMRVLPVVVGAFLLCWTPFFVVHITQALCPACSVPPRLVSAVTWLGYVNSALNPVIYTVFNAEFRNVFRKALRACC
Description: Binding affinity towards Dopamine type 4 receptor was determined by competitive displacement assays using [3H]-YM 09151 as the competitive ligand

[3] = tested on: Rattus norvegicus; experiment: Minimum effective dose required for significant dose dependent reduction of amphetamine-induced locomotor activity in male Sprague-Dawley rats on subcutaneous administration (30 min prior to receiving amphetamine 0.5 mg/kg); assay type: functional; details: sc, read-out: MED
[4] = species on record: Rattus norvegicus; experiment: Minimum effective dose required in the catalepsy experiment in rats; showed no significant effect at this dose; assay type: functional; details: read-out: MED
[5] = species on record: Rattus norvegicus; experiment: Minimum effective dose required in the catalepsy experiment in rats; assay type: functional; details: read-out: MED

Ki [1] | Ki [2] | Compound | minimal effective dose [3] | minimal effective dose [4] | minimal effective dose [5]
> 10 µM | 0.006 µM | C[C@@H]1Cc2ccccc2N1C(=O)CN1CCN(Cc2cc(F)c(Cl)cc2F)CC1 | – | – | –
0.98 µM | 0.005 µM | COc1ccc(Cl)cc1CN1CCN(CC(=O)N2c3ccccc3C[C@H]2C)CC1 | – | – | –
– | 0.006 µM | C[C@@H]1Cc2ccccc2N1C(=O)CN1CCN(Cc2cccc(F)c2)CC1 | – | – | –
0.1 µM | 0.008 µM | COC(=O)[C@@H]1Cc2ccccc2N1C(=O)CN1CCN(Cc2ccc(C)cc2)CC1 | – | – | –
0.453 µM | 1.76 µM | O=C(O)[C@@H]1Cc2ccccc2N1C(=O)CN1CCN(Cc2ccc(Cl)cc2)CC1 | – | – | –
1.06 µM | 0.003 µM | COc1cc(Cl)ccc1CN1CCN(CC(=O)N2c3ccccc3C[C@H]2C)CC1 | > 4 mg/kg | – | –
> 1 µM | 0.005 µM | COC(=O)[C@@H]1Cc2ccccc2N1C(=O)CN1CCN(Cc2ccc(Cl)cc2)CC1 | – | – | –
– | > 1 µM | O=C(NCc1ccccc1)[C@@H]1Cc2ccccc2N1C(=O)CN1CCN(Cc2ccc(Cl)cc2)CC1 | – | – | –
– | 0.01 µM | CC(C)c1ccc(Cl)cc1CN1CCN(CC(=O)N2c3ccccc3C[C@H]2C)CC1 | – | – | –
– | – | C[C@@H]1Cc2ccccc2N1C(=O)CN1CCN(Cc2ccc(Cl)cc2)CC1 | > 8 mg/kg | – | –
> 10 µM | 0.027 µM | C[C@@H]1Cc2ccccc2N1C(=O)CN1CCN(Cc2ccccc2F)CC1 | – | – | –
0.807 µM | 0.002 µM | Cc1ccc(CN2CCN(CC(=O)N3c4ccccc4C[C@H]3C)CC2)cc1F | – | – | –
1.66 µM | 0.029 µM | COc1ccc(OC)c(CN2CCN(CC(=O)N3c4ccccc4C[C@H]3C)CC2)c1 | – | – | –
> 1 µM | 0.012 µM | C[C@@H]1Cc2ccccc2N1C(=O)CN1CCN(Cc2ccc(F)c(F)c2Cl)CC1 | – | – | –
– | – | Cc1ccc(CN2CCN(CC(=O)N3c4ccccc4C[C@H]3C)CC2)cc1 | > 4 mg/kg | – | –
1.33 µM | 0.003 µM | CC[C@@H]1Cc2ccccc2N1C(=O)CN1CCN(Cc2ccc(C)cc2)CC1 | – | – | –
1.13 µM | 0.003 µM | C[C@@H]1Cc2ccccc2N1C(=O)CN1CCN(Cc2ccc3c(c2)OCO3)CC1 | – | – | –
1.09 µM | 0.011 µM | CCOc1ccc(Cl)cc1CN1CCN(CC(=O)N2c3ccccc3C[C@H]2C)CC1 | – | – | –
2.18 µM | – | C=C[C@@H]1Cc2ccccc2N1C(=O)CN1CCN(Cc2ccc(Cl)cc2)CC1 | – | – | –
– | – | CN1CCN(C2=Nc3cc(Cl)ccc3Nc3ccccc32)CC1 [CLOZAPINE] | 1 mg/kg | > 40 mg/kg | –
– | – | O=C(CCCN1CCC(O)(c2ccc(Cl)cc2)CC1)c1ccc(F)cc1 [HALOPERIDOL] | 0.06 mg/kg | – | 0.5 mg/kg
